Data on 31 compounds can be found in patent publication US20260001889A1, “COMPOSITIONS USEFUL FOR MODULATING SPLICING” (Skyhawk Therapeutics, Inc., priority 2022, published 2026).

As a reminder, the EC50 is the concentration giving half of the maximal effect. The low end stands for higher potency in that assay, the high end for lower potency in that assay. For orientation: IC50 means the concentration that gives 50% inhibition.

The first assay has as its system ATXN3-HiBiT protein. Briefly: ATXN3 Total Protein Assay (Kelly-ATXN3-HiBiT luminescence). The conditions noted are these: Kelly-ATXN3-HiBiT cells, 48 h after addition of compound. The format is cell-based. The text has this:
Example 36: ATXN3 Total Protein Assay
To monitor ATXN3 protein levels by luminescence, a Kelly-ATXN3-HiBiT cell line with homozygous knock-in of HiBiT at the C-terminus of the endogenous ATXN3 gene was used (knock-in of the HiBiT-tag coding sequence SEQ ID NO. 14: 5′[…]3′ into exon 11 of ATXN3-position 1114 of ATXN3 RefSeq NM_004993.6). Manipulations of the Kelly-ATXN3-HiBiT cell line that result in downregulation of the ATXN3-HiBiT protein (through modulation of ATXN3-HiBiT pre-mRNA splicing) can be followed by monitoring the luminescence signal of the HiBiT tag using the Nano Glo HiBiT Lytic Detection System (Promega, #N3050). Kelly-ATXN3-HiBiT cells were maintained in RPMI 1640 w/Glutamax (Gibco, #61870010), 10% FBS (Sigma Aldrich, #F8687), 1% Penicillin/Streptomycin (Gibco, #15140-122) at 37° C., 5% CO2. To assess HiBiT-luminescence signal upon compound treatment, 2000 Kelly-ATXN3-HiBiT cells were seeded per well in 384 plate format. Compounds were added 24 h after seeding. ATXN3-HiBiT-luminescence signal was read out 48 h after addition of the compound using the Nano Glo HiBiT Lytic Detection System (Promega, #N3050) according to the manufacturer's instructions. To control for cell viability, an identically prepared sister plate was read out with the CellTiter-Glo® 2.0 Assay (Promega, #G9243) according to the manufacturer's instructions. Fold changes of ATXN3-HiBiT-luminescence and of CellTiter-Glo viability signals were calculated relative to a DMSO control condition.
Compound `[2H]C([2H])(F)[C@H](N)Cc1oc2c(NCc3cccs3)cc(Cl)nc2c1Br` [Compound 299, 2-[(R)-2-amino-3-fluoro(3,3-^2H2)propyl]-3-bromo-5-chloro-7-thenylamino-1-oxa-4-azaindene] returned an EC50 of 0.01 to 100 nM.

With `C[C@H](N)C(F)(F)c1oc2c(NCc3nccs3)cc(Cl)nc2c1Br` [Compound 223, 2-[(S)-2-amino-1,1-difluoropropyl]-3-bromo-5-chloro-7-{[(1,3-thiazol-2-yl)methyl]amino}-1-oxa-4-azaindene], the EC50 lay in the range of 101 to 500 nM.

Compound `[2H]C([2H])(Nc1cc(Cl)nc2c(Br)c(C[C@@H](N)COC(F)(F)F)oc12)c1cccs1` [Compound 246, 2-[(R)-2-amino-3-trifluoromethoxypropyl]-3-bromo-5-chloro-7-{[(2-thienyl)(^2H2)methyl]amino}-1-oxa-4-azaindene] registered an EC50 of 101 to 500 nM.

`C[C@H](N)Cc1oc2c(NCc3ccc(F)c(F)c3F)cc(Cl)nc2c1Br` [Compound 351, 2-[(S)-2-aminopropyl]-3-bromo-5-chloro-7-{[(2,3,4-trifluorophenyl)methyl]amino}-1-oxa-4-azaindene] returned an EC50 of 10000 to 40000 nM.

`N[C@@H](CCOC(F)(F)F)Cc1oc2c(NCc3cccs3)cc(Cl)nc2c1Br` [Compound 146, 2-[(S)-2-amino-4-trifluoromethoxybutyl]-3-bromo-5-chloro-7-thenylamino-1-oxa-4-azaindene] had an EC50 of 0.01 to 100 nM.

With `Cc1c(C[C@@H](N)CC2(F)CC2)oc2c(NCc3cccs3)cc(Cl)nc12` [Compound 68, 2-[(R)-2-amino-3-(1-fluorocyclopropyl)propyl]-5-chloro-3-methyl-7-thenylamino-1-oxa-4-azaindene], the EC50 lay in the range of 501 to 5000 nM.

Turning to `[2H]C([2H])([2H])OCC[C@H](N)Cc1oc2c(NCc3cccs3)cc(Cl)nc2c1C#C` [Compound 320, 2-[(S)-2-amino-4-(^2H3)methoxybutyl]-5-chloro-3-ethynyl-7-thenylamino-1-oxa-4-azaindene], the EC50 fell in the range of 0.01 to 100 nM.

Compound `Cc1c(CC(N)CC2(F)CC2)oc2c(NCc3cccs3)cc(Cl)nc12` (stereo not shown) [Compound 67, 2-[2-amino-3-(1-fluorocyclopropyl)propyl]-5-chloro-3-methyl-7-thenylamino-1-oxa-4-azaindene] yielded an EC50 of 101 to 500 nM.

In the case of `[2H]C([2H])([2H])OC[C@H](N)Cc1oc2c(NCc3ccco3)cc(Cl)nc2c1Cl` [Compound 265, 2-[(R)-2-amino-3-(^2H3)methoxypropyl]-3,5-dichloro-7-(furfurylamino)-1-oxa-4-azaindene], the EC50 lay within 0.01 to 100 nM.

`[2H]C([2H])([2H])OC[C@]([2H])(N)Cc1oc2c(NCc3cccs3)cc(Cl)nc2c1Cl` [Compound 282, 2-[(R)-2-amino-3-(^2H3)methoxy(2-2H)propyl]-3,5-dichloro-7-thenylamino-1-oxa-4-azaindene] displayed an EC50 of 0.01 to 100 nM.

`COC(C)c1oc2c(NCc3cccs3)cc(Cl)nc2c1Br` (stereo not shown) [Compound 356, 3-bromo-5-chloro-2-(1-methoxyethyl)-N-(thiophen-2-ylmethyl)furo[3,2-b]pyridin-7-amine]: the EC50 lay in the range of 10000 to 40000 nM.

Consider `[2H][C@@](C)(N)Cc1oc2c(NCc3cccs3)cc(Cl)nc2c1Br` [Compound 229, 2-[(S)-2-amino(2-2H)propyl]-3-bromo-5-chloro-7-thenylamino-1-oxa-4-azaindene], for which the EC50 lay in the range of 0.01 to 100 nM.

`C[C@H](N)Cc1oc2c(NCc3ccc(F)cn3)cc(Cl)nc2c1Br` [Compound 341, 2-[(S)-2-aminopropyl]-3-bromo-5-chloro-7-{[(5-fluoro-2-pyridyl)methyl]amino}-1-oxa-4-azaindene] yielded an EC50 of 5000 to 10000 nM.

Another assay deals with ATXN3 transcripts containing exon 4. The assay is described as follows: ATXN3 Quantitative Splicing Assay (qPCR, E4E5 primers/probe). It counts as cell-based. Particulars: Homo sapiens, SK-N-MC cells, compounds for 24 h. How it is done:
Example 34: ATXN3 Quantitative Splicing Assay
Human neuroblastoma SK-N-MC cells were plated in 384-well plates at 20,000 cells/well. Twenty-four hours after plating, cells were treated with compounds for 24 h at appropriate concentrations ranging from 30 μM to 0.6 nM (0.300 DMSO). Treated cells were lysed in 15 μL of lysis buffer, and cDNA was synthesized using the Fast Advanced Cells-to-Ct kit. Two […] of each cDNA was used in qPCR reactions to confirm the exon 4 skipped transcripts of ATXN3. A second set of primers/probe E4E5 was used to detect the transcripts containing exon 4. The third set of primers/probe E8E9 was used to detect total gene level of ATXN3. The qPCR reactions were prepared in 384-well plates in 10 μL volume, using TaqMan™ Fast Advanced Master Mix with primers and probes shown in the table below. Reactions were run in a Quant Studio 6 qPCR instrument with default settings.
The primers and probes are listed below in Table 4.
(In general: Quantitative PCR measures a nucleic acid by following its amplification.)
`COc1cccc(CNc2cc(Cl)nc3c(Br)c(C[C@H](C)N)oc23)c1` [Compound 362, 2-[(S)-2-aminopropyl]-3-bromo-5-chloro-7-{[(m-methoxyphenyl)methyl]amino}-1-oxa-4-azaindene]: the concentration for half-maximal inhibition (IC50) fell in the range of 5000 to 10000 nM.

In the case of `N[C@H]1CCC(F)(F)C[C@@H]1c1oc2c(NCc3cccs3)cc(Cl)nc2c1Br` [Compound 380, 2-[(1S,2S)-2-amino-5,5-difluorocyclohexyl]-3-bromo-5-chloro-7-thenylamino-1-oxa-4-azaindene], the IC50 lay in the range of 101 to 500 nM.

Turning to `Clc1cc(NCc2cccs2)c2oc(OCC3CCC3)c(Br)c2n1` [Compound 368, 3-bromo-5-chloro-2-(cyclobutylmethoxy)-N-(thiophen-2-ylmethyl)furo[3,2-b]pyridin-7-amine], the half-maximal inhibitory concentration (IC50) fell in the range of 501 to 5000 nM.

As to `N[C@H]1CCCC[C@H]1c1cc2nc(Cl)cc(NCc3cccs3)c2o1` (racemic) [Compound 363, rac-2-[(1R,2S)-2-aminocyclohexyl]-5-chloro-N-(thiophen-2-ylmethyl)furo[3,2-b]pyridin-7-amine], the IC50 lay in the range of 501 to 5000 nM.

`C[C@H](F)[C@H](N)Cc1oc2c(NCc3cccs3)cc(C#N)nc2c1Cl` [Compound 104, 2-[(2R,3S)-2-amino-3-fluorobutyl]-3-chloro-7-thenylamino-1-oxa-4-aza-5-indenecarbonitrile] came in with an IC50 of 101 to 500 nM.

As for `N[C@@H]1CCC[C@H]1c1oc2c(NCc3cccs3)cc(Cl)nc2c1Br` [Compound 172, 2-[(1R,2R)-2-aminocyclopentyl]-3-bromo-5-chloro-7-thenylamino-1-oxa-4-azaindene], the IC50 was in the range of 501 to 5000 nM.

`C[C@H](N)Cc1oc2c(NCc3ccco3)cc(Cl)nc2c1-c1nnco1` [Compound 364, 2-[(2S)-2-aminopropyl]-5-chloro-N-(furan-2-ylmethyl)-3-(1,3,4-oxadiazol-2-yl)furo[3,2-b]pyridin-7-amine]: the IC50 lay within 501 to 5000 nM.

Consider `N[C@@H]1CC[C@H]1c1oc2c(NCc3cccs3)cc(Cl)nc2c1Br` (single isomer, unassigned) [Compound 290], for which the IC50 lay in the range of 501 to 5000 nM.

Turning to `N[C@H]1CC(F)(F)C[C@@H]1c1oc2c(NCc3cccs3)cc(Cl)nc2c1Br` (single isomer, unassigned) [Compound 369], the IC50 lay within 5000 to 10000 nM.

For `Cc1c(C[C@H](C)N)oc2c(NCc3cccs3)cc(F)nc12` [Compound 404, 2-[(S)-2-aminopropyl]-5-fluoro-3-methyl-7-thenylamino-1-oxa-4-azaindene], the IC50 was in the range of 101 to 500 nM.

Compound `CNC(=O)c1c(C[C@H](C)N)oc2c(NCc3ccco3)cc(Cl)nc12` [Compound 358, 2-[(2S)-2-aminopropyl]-5-chloro-7-[(furan-2-ylmethyl)amino]-N-methylfuro[3,2-b]pyridine-3-carboxamide] yielded an IC50 of 10000 to 40000 nM.

`N[C@H]1CCCC[C@@H]1c1oc2c(NCc3cccs3)cc(Cl)nc2c1Br` [Compound 174, 2-[(1,2S)-2-aminocyclohexyl]-3-bromo-5-chloro-7-thenylamino-1-oxa-4-azaindene] gave an IC50 of 0.01 to 100 nM.

`N[C@H]1CCC[C@@H]1c1oc2c(NCc3cccs3)cc(Cl)nc2c1Br` [Compound 170, 2-[(1S,2S)-2-aminocyclopentyl]-3-bromo-5-chloro-7-thenylamino-1-oxa-4-azaindene] yielded an IC50 of 0.01 to 100 nM.

In the case of `C#Cc1c(C[C@@H](N)[C@H](C)F)oc2c(NCc3cccs3)c(F)c(Cl)nc12` [Compound 278, 2-[(2R,3S)-2-amino-3-fluorobutyl]-5-chloro-3-ethynyl-6-fluoro-7-thenylamino-1-oxa-4-azaindene], the IC50 lay within 101 to 500 nM.

Regarding `N[C@H]1CC[C@@H]1c1oc2c(NCc3cccs3)cc(Cl)nc2c1Br` (single isomer, unassigned) [Compound 291], the IC50 was 101 to 500 nM.

`N[C@H]1CC[C@@H]1c1oc2c(NCc3cccs3)cc(Cl)nc2c1Br` (racemic) [Compound 367, 2-(2-aminocyclobutyl)-3-bromo-5-chloro-N-(thiophen-2-ylmethyl)furo[3,2-b]pyridin-7-amine] displayed an IC50 of 101 to 500 nM.

`N[C@@H]1COC[C@H]1c1oc2c(NCc3cccs3)cc(Cl)nc2c1Br` [Compound 374, 2-[(3S,4S)-4-aminotetrahydro-3-furyl]-3-bromo-5-chloro-7-thenylamino-1-oxa-4-azaindene] displayed an IC50 of 10000 to 40000 nM.

`C[C@H](N)Cc1oc2c(NCc3ccco3)cc(Cl)nc2c1-c1ncc(C#N)o1` [Compound 366, 2-{2-[(2S)-2-aminopropyl]-5-chloro-7-[(furan-2-ylmethyl)amino]furo[3,2-b]pyridin-3-yl}-1,3-oxazole-5-carbonitrile] gave an IC50 of 10000 to 40000 nM.
